The values below come from patent US8426392B2, “Method for providing emergency contraception” (Laboratoire HRA-Pharma, priority 2009, dated 2013).

For data set [1] the following is noted: in vivo.
Procedure: (§1) A specific food interaction study was conducted, in which the pharmacokinetic profile of ulipristal acetate and its main metabolite 3877A was evaluated after single administration of a 30-mg ulipristal acetate micronized tablet either under fasted conditions or after a high-fat breakfast. The main pharmacokinetic parameters were evaluated, including maximum plasma concentration (Cmax), area under the drug concentration curve (AUC) from time 0 to time of last determinable concentration or to infinity, and the time to maximum plasma concentration (tmax).
(§2) A second oral administration followed, after at least a 21-day wash-out period.
(§3) Analysis of Cmax and AUC was carried out by analysis of variance using PROC MIXED® program on the logarithmically transformed data. The 90% standard confidence interval limits for relative treatment differences was calculated by geometric means based on logarithmic transformation of the intra-individual ratios of Cmax and AUC.
(§4) The analysis of tmax was based on Wilocoxon-Mann-Whitney test adapted according to the methodology of Koch. Estimate for treatment difference and 90% confidence interval was estimated according to the method of Moses.
Data set [2] in a line: Phase III pregnancy rates after 30 mg ulipristal acetate tablet by food intake prior to treatment. The class given is in vivo, human. The following applies: for Observed PR (pregnancy rate): 30 mg tablet. As to the method: With respect to clinical efficacy, data on last food intake prior to study drug was collected in a subset of subjects (n=1185) included in the phase III program of development of the 30 mg ulipristal acetate tablet for emergency contraception. Pregnancy rates (PR) were compared between women who reported having eaten within two hours prior to treatment intake versus those who reported having eaten only earlier.

The conditions of data set [3]: used within 72 hours of unprotected intercourse; cited from earlier work.
Data set [4] can be described thus: Food interaction study: bioavailability of a single 30 mg oral dose of ulipristal acetate in fed and fasting states. The following applies: for AUC(0-t) / AUC(0-inf) / Cmax / Tmax / half-life: female, human, plasma, oral, 30 mg; for AUC(0-t): AUC0-t; for AUC(0-inf): AUC0-∞.
Procedure: as §1, §2, §3, §4
Where [5] appears, read: Fed vs. Fasted condition, ANOVA.
The mark [6] stands for this setting: fasted, single 30 mg tablet, mean ± SD.
Setting [7] is: fed (high-fat breakfast), single 30 mg tablet, mean ± SD.

The structures appear in SMILES notation. Entries after “also recorded” stand apart in the source; their conditions may differ. Where two headings read alike, the source gives them in different places. Marks after values point to notes of the source that are not given here.

As for `CNc1ccc([C@H]2C[C@@]3(C)[C@@H](CC[C@]3(OC(C)=O)C(C)=O)[C@@H]3CCC4=CC(=O)CCC4=C32)cc1` [3877A, 17α-acetoxy-11β-[4-N-methylamino-phenyl)-19-norpregna-4,9-diene-3,20-dione], the terminal elimination half-life result in data set [1] (human) is given as “around 30 h”. In data set [1] (human, 30 mg), the “AUC0-∞” value turned out to be 265 ng·h/mL; the AUC(0-t) (as a rule, exposure summed from dosing to a finite time, without extrapolation to infinity) is 244 ng·h/mL; the Cmax (commonly the peak of the concentration-time curve) came to 86.5 ng/mL; the Tmax (as a rule, the time at which the peak concentration occurs) was found to be 0.75 h. Also, the t1/2 in data set [1] (human, 30 mg) is listed as 30.0 ± 7.56^c h. In data set [1], the “AUC0-t, point estimate of the fed/fasted ratio of least squares geometric means” value is on record as 121.72^a %; the “AUC0-∞, point estimate of the fed/fasted ratio of least squares geometric means” value is recorded as 118.73^c %; the “Cmax, point estimate of the fed/fasted ratio of least squares geometric means” value was 62.45%.
As to `CC(=O)O[C@]1(C(C)=O)CC[C@H]2[C@@H]3CCC4=CC(=O)CCC4=C3[C@@H](c3ccc(N(C)C)cc3)C[C@@]21C` [ulipristal acetate, 17α-acetoxy-11β-[4-N,N-dimethylamino-phenyl)-19-norpregna-4,9-diene-3,20-dione], the “Expected PR (pregnancy rate)” value is reported as 5.56% in data set [2] (food intake 2 h or more before ulipristal acetate intake) and 5.27% in data set [2] (food intake less than 2 h before ulipristal acetate intake). Moreover, the “Observed PR (pregnancy rate)” value in data set [2] (food intake 2 h or more before ulipristal acetate intake, n=905) worked out at 1.44%; in data set [2] (food intake less than 2 h before ulipristal acetate intake, n=279), 1.79%. Further, the “effect of food on efficacy in emergency contraception (pregnancy rate)” value in data set [2] (phase III trials, eaten within two hours prior to intake versus earlier) is recorded as “the same therapeutic efficacy; also recorded: no significant effect”. Besides, in data set [3], the “efficacy for preventing pregnancy compared with levonorgestrel” value was “as efficacious as levonorgestrel”. In addition, the “AUC0-t, point estimate of the fed/fasted ratio of least squares geometric means” value in data set [4] (setting [5]) is recorded as 123.30^a %. Moreover, in data set [4] (setting [5]), the “AUC0-∞, point estimate of the fed/fasted ratio of least squares geometric means” value was 126.20^b %. Further, the “Cmax, point estimate of the fed/fasted ratio of least squares geometric means” value in data set [4] (setting [5]) is 56.25%. Also, the “higher mean AUC0-∞ with a high-fat breakfast” value in data set [4] (compared with administration in a fasted state) worked out at 25%. The tlag is reported as 0.00 (0.00-0.00) h in data set [4] (fasted, single 30 mg tablet, median (range)) and 0.00 (0.00-0.50) h in data set [4] (fed (high-fat breakfast), single 30 mg tablet, median (range)). Moreover, the results for the AUC(0-t) in data set [4] (setting [6]) and in data set [4] (setting [7]) were 467 ng·h/mL and 566 ng·h/mL, respectively. Further, the AUC(0-inf) (as a rule, the area under the concentration-time curve extrapolated to infinity) in data set [4] (setting [6]) amounted to 474 ng·h/mL; in data set [4] (setting [7]), 608 ng·h/mL. In addition, the Cmax turned out to be 173 ng/mL in data set [4] (fasted, single 30 mg ulipristal acetate micronized tablet, healthy women, mean ± SD) and 99.2 ng/mL in data set [4] (fed (high-fat breakfast), single 30 mg ulipristal acetate tablet, mean ± SD). For the same compound, the Tmax in data set [4] (Tmax (median), fasted state, as stated for the printed matter) is 0.75 h; in data set [4] (Tmax (median), with a high-fat breakfast, as stated for the printed matter) it was 3 h; in data set [4] (tmax, fasted, single 30 mg tablet, median (range)), 0.75 h; in data set [4] (tmax, fed (high-fat breakfast), single 30 mg tablet, median (range)) it was 3 h. Moreover, the half-life (commonly how long it takes for the measured level to halve) in data set [4] (t1/2, fasted, single 30 mg tablet, mean ± SD) is 37.2 ± 7.19 h; in data set [4] (t1/2, fed (high-fat breakfast), single 30 mg tablet, mean ± SD) it was 36 ± 7.78 h; in data set [4] (terminal elimination half-life, average, independently of the food condition), approximately 36 h.
